Laboratory results published in patent US20090036475A1, “Pyrazolyl-Pyrimidines as Potassium Channel Modulating Agents and Their Medical Use” (NEUROSEARCH A/S, priority 2006, published 2009).

Biological target: T1, small-conductance Ca2+-activated K+ channel, subtype 3 (SK3) (Homo sapiens, UniProt Q9UGI6)
T1 construct: expressed in transfected cells; host or cells: HEK293
Assay: Whole-cell patch-clamp recording of SK3 current in HEK293 cells
Format: cell-based
Conditions: hSK3 stably expressed in HEK293 cells, baseline current at −20 mV, free Ca2+ 300 nM, room temperature
Experimental: The ionic current through small-conductance Ca^2+-activated K^+ channels (SK channels, subtype 3) is recorded using the whole-cell configuration of the patch-clamp technique.
The small-conductance Ca^2+-activated K^+ channel, subtype 3 (SK3) was cloned from human skeletal muscle and stably expressed in HEK293 cells.
Human SK3 (hSK3) was sub-cloned into the expression vector pNS3n, a customized vector derived from pcDNA3 (InVitrogen) to give the plasmid construct pNS3_hSK3. HEK293 tissue culture cells were grown in DMEM (Dulbecco's Modified Eagle Medium) supplemented with 10% FCS (foetal calf serum) at 37° C. in 5% CO2. […]
Experiments are carried out on one of several patch-clamp set-ups. […] Data are stored directly on the hard-disk and analysed by IGOR software (Wavemetrics, Lake Oswega, Oreg., USA).
The whole-cell configuration of the patch-clamp technique is applied. […] Cell capacitance is electronically compensated and the resistance between the pipette and the cell interior (the series resistance, Rs) is measured and compensated for. […]
The intracellular (pipette) solution has the following composition (in mM): 105 KCl, 45 KOH, 10 EGTA, 1.21 MgCl2, 7.63 CaCl2, and 10 HEPES (pH=7.2 with HCl). The calculated free concentration of Ca^2+ in this solution is 300 nM and that of Mg^2+ is 1 mM. […]
Active compounds are quantified by calculating the change in baseline current at −20 mV. […]

Row | SC100 (Stimulating Concentration required for increasing the baseline current by 100%) [µM] | SMILES
1 | 0.1 | Cc1cc(NC2CCCCC2)nc(-n2nc(C)cc2C)n1 [Compound A2, Cyclohexyl-[2-(3,5-dimethyl-pyrazol-1-yl)-6-methyl-pyrimidin-4-yl]-amine]

Test system: not given
Assay: not given
Conditions: not given

Row | melting point [°C] | SMILES
2 | 135.1 to 137.5 | Cc1ccc(Nc2cc(C)nc(-n3nc(C)cc3C)n2)cc1 [Compound B1, [2-(3,5-Dimethyl-pyrazol-1-yl)-6-methyl-pyrimidin-4-yl]-p-tolyl-amine]
3 | 130.5 to 133.6 | Cc1cc(Nc2cccc(C(F)(F)F)c2)nc(-n2nc(C)cc2C)n1 [Compound B6, [2-(3,5-Dimethyl-pyrazol-1-yl)-6-methyl-pyrimidin-4-yl]-(3-trifluoromethyl-phenyl)-amine]
4 | 98.5 to 99.6 | Cc1cc(C)n(-c2nccc(Nc3cccc(C(F)(F)F)c3)n2)n1 [Compound B8, [2-(3,5-Dimethyl-pyrazol-1-yl)-pyrimidin-4-yl]-(3-trifluoromethyl-phenyl)-amine]
5 | 179.2 to 182.3 | Cc1cc(C)n(-c2ncc(C)c(Nc3ccc(Cl)cc3)n2)n1 [Compound B12, (4-Chloro-phenyl)-[2-(3,5-dimethyl-pyrazol-1-yl)-5-methyl-pyrimidin-4-yl]-amine]
6 | 181 to 183.2 | Cc1cc(Nc2ccc(Cl)cc2)nc(-n2nc(C)cc2C)n1 [Compound B3, (4-Chloro-phenyl)-[2-(3,5-dimethyl-pyrazol-1-yl)-6-methyl-pyrimidin-4-yl]-amine]
7 | 144.5 to 146.7 | Cc1cc(C)n(-c2nccc(NC3CCCCC3)n2)n1 [Compound A5, Cyclohexyl-[2-(3,5-dimethyl-pyrazol-1-yl)-pyrimidin-4-yl]-amine]
8 | 144.5 to 154 | Cc1cc(C)n(-c2ncc(Br)c(Nc3ccc(Cl)cc3)n2)n1 [Compound B10, [5-Bromo-2-(3,5-dimethyl-pyrazol-1-yl)-pyrimidin-4-yl]-(4-chloro-phenyl)-amine]
9 | 52 to 55.6 | Cc1ccc(Nc2ccnc(-n3nc(C)cc3C)n2)cc1 [Compound B11, [2-(3,5-Dimethyl-pyrazol-1-yl)-pyrimidin-4-yl]-p-tolyl-amine]
10 | 135.5 to 140 | Cc1cc(C)n(-c2nccc(Nc3ccc(Cl)cc3)n2)n1 [Compound B9, (4-Chloro-phenyl)-[2-(3,5-dimethyl-pyrazol-1-yl)-pyrimidin-4-yl]-amine]
11 | 135.3 to 137.8 | Cc1cc(Nc2ccc(Cl)c(Cl)c2)nc(-n2nc(C)cc2C)n1 [Compound B4, (3,4-Dichloro-phenyl)-[2-(3,5-dimethyl-pyrazol-1-yl)-6-methyl-pyrimidin-4-yl]-amine]
12 | 135.9 to 137.3 | Cc1cc(NCc2ccccc2)nc(-n2nc(C)cc2C)n1 [Compound A1, Benzyl-[2-(3,5-dimethyl-pyrazol-1-yl)-6-methyl-pyrimidin-4-yl]-amine]
13 | 134.5 to 138.8 | Cc1cc(Nc2ccccc2)nc(-n2nc(C)cc2C)n1 [Compound B2, [2-(3,5-Dimethyl-pyrazol-1-yl)-6-methyl-pyrimidin-4-yl]-phenyl-amine]
14 | 90 to 99 | Cc1cc(C)n(-c2ncc(Cl)c(NC3CCCCC3)n2)n1 [Compound A6, [5-Chloro-2-(3,5-dimethyl-pyrazol-1-yl)-pyrimidin-4-yl]-cyclohexyl-amine]
